The values that follow come from US6423718B1, “4,4-disubstituted-3,4-dihydro-2(1H)-quinazolinones useful as HIV reverse transcriptase inhibitors” (Bristol-Myers Squibb Pharma Company, priority 1997, dated 2002).

The structures appear in SMILES notation. In brackets after ≈: the same amount, converted by molar mass.

The test system of one series is HIV-1 (RF). As to the kind of experiment: HIV RNA assay: microplate based compound evaluation in HIV-1 infected MT-2 cells (IC90). Type of series: cell-based. The following applies: Human immunodeficiency virus 1, MT2, 72 h; HIV-1 (RF) infected MT-2 cells, 3 days of culture; virus dilutions selected to standardize the inoculum; read-out: IC90 value (concentration of compound required to reduce the HIV RNA level by 90%). As for the experimental part:
Plasmid pDAB 72 containing both gag and pol sequences of BH10 (bp 113-1816) cloned into PTZ 19R was prepared according to Erickson-Viitanen et al. AIDS Research and Human Retroviruses 1989, 5, 577. The plasmid was linearized with Ban HI prior to the generation of in vitro RNA transcripts using the Riboprobe Gemini system II kit (Promega) with T7 RNA polymerase. Synthesized RNA was purified by treatment with RNase free DNAse (Promega), phenol-chloroform extraction, and ethanol precipitation. RNA transcripts were dissolved in water, and stored at −70° C. The concentration of RNA was determined from the A260.
Biotinylated capture probes were purified by HPLC after synthesis on an Applied Biosystems (Foster City, Calif.) DNA synthesizer by addition of biotin to the 5′ terminal end of the oligonucleotide, using the biotin-phosphoramidite reagent of Cocuzza, Tet. Lett. 1989, 30, 6287. […]
MT-2 and MT-4 cells were maintained in RPMI 1640 supplemented with 5% fetal calf serum (FCS) for MT-2 cells or 10% FCS for MT-4 cells, 2 mM L-glutamine and 50 μg/mL gentamycin, all from Gibco. […] Infectious titers of HIV-1 (RF) stocks were 1-3×10^7 PFU (plaque forming units)/mL as measured by plaque assay on MT-2 cells (see below). […]

By melting point is commonly meant the temperature, or range, at which the solid turns liquid.

With `COc1ccc2c(c1)C(C#CC1CC1)(C(F)(F)F)NC(=O)N2` (racemic) [Example 6, (+/−)-4-Cyclopropylethynyl-6-methoxy-4-trifluoromethyl-3,4-dihydro-2(1H)-quinazolinone], the melting point stood at 208 °C.
The same measure, in the same setting: for `CC(C)CCC1(C(F)(F)F)NC(=O)Nc2ccc(F)c(F)c21` (racemic) [Example 15, (+/−)-5,6-Difluoro-4-isopentyl-4-trifluoromethyl-3,4-dihydro-2(1H)-quinazolinone] the value was 192 to 193 °C; for `O=C1Nc2ccc(F)cc2C(CCc2ccccc2)(C(F)(F)F)N1` (racemic) [Example 25, (+/−)-6-Fluoro-4-phenylethyl-4-trifluoromethyl-3,4-dihydro-2(1H)-quinazolinone], 98 °C; for `CCCCC1(C(F)(F)F)NC(=O)Nc2ccc(F)cc21` (racemic) [Example 24, (+/−)-4-Butyl-6-fluoro-4-trifluoromethyl-3,4-dihydro-2(1H)-quinazolinone], 198 °C.
Same read-out and setting: under `CC(C)CCC1(C(F)(F)F)NC(=O)Nc2ccc(F)cc21` (racemic) [Example 22, (+/−)-6-Fluoro-4-isopentyl-4-trifluoromethyl-3,4-dihydro-2(1H)-quinazolinone] stands 179 °C.
On the same count and under the same terms, for `O=C1Nc2ccc(F)cc2C(C#CC2CC2)(C(F)(F)F)N1` (racemic) [Example 17, (+/−)-4-Cyclopropylethynyl-6-fluoro-4-trifluoromethyl-3,4-dihydro-2(1H)-quinazolinone] the value was 155 °C.
Take `Nc1ccn([C@H]2CC[C@@H](CO)O2)c(=O)n1` [ddC, 2′,3′-dideoxycytidine]: in the series with HIV-1 (RF), the IC90 came to 0.2 µg/mL (≈ 0.947 µM).
